Data published in patent US9844540B2, “Combination therapies for treating cancer” (RedHill Biopharma Ltd., priority 2015, dated 2017).
“And” between values parts separate entries of the source, which are not always exact repeats. Identical values can stand only once. Like-named read-outs stand apart in the source and are kept apart here.

How the values were obtained:
[1] = system: MIA PaCa-2 pancreatic cancer cell line; experiment: In vitro cytotoxicity MTT assay, MIA PaCa-2; format: cell-based, human; settings: 3 days
Procedure: (§1) The following experiment was performed to assess the potential of combination agents of the present disclosure for their capability of inhibiting the growth or proliferation of pancreatic cancer cells comprising contacting pancreatic cancer cells with effective amounts of the agents, alone and in combination, thereby inhibiting the growth or proliferation of the pancreatic cancer cells.
(§2) The present study investigated whether clarithromycin+rifabutin+clofazimine (“Combo”) would be synergistic with [3-(4-chlorophenyl)-adamantane-1-carboxylic acid (pyridin-4-ylmethyl)amide] (“ABC2640”) against MIA PaCa-2, PANC-1, and Hs 766T pancreatic cancer cell lines. Hs 766T is a cell line derived from the lymph node metastasis of a person with pancreas carcinoma. MIA PaCa-2 is a cell line derived from the pancreas adenocarcinoma of a person who presented with abdominal pain for 6 months and a palpable upper abdominal mass. PANC-1 was cultured from a person with an adenocarcinoma in the head of the pancreas which invaded the duodenal wall.
(§3) The MTT assay is commonly used to determine cytotoxicity of potential medicinal agents, since these types of materials are expected to stimulate or inhibit cell viability and growth. Briefly, 3,000 cells were plated/well—100 μl/well. After overnight, prior to the assay, 50 μl supernatant was removed from each well. Each drug was added at 4× of the final concentration (in 50 μl). Total volume of each well was 200 μl. 4 wells had been used as a control and contained no cells at all. The plate was developed after being incubated for 3 days at 37° C. 20 μl of Promega Substrate Cell Titer 96 Aqueous One Solution Reagent was added to each well, incubated at 37° C. and read OD at 490 nm. The MTT test is based on the enzymatic reduction of the tetrazolium salt MTT [3-(4,5-dimethylthiazol-2-yl)-2,5-diphenyl-tetrazoliumbromide^+++] in living, metabolically active cells but not in dead cells. The reaction is carried out in situ in multiwell plates, and the reaction product, a purple-colored formazan soluble in dimethylsulfoxide, is measured colorimetrically, using a multiwell plate reader.

[2] = system: Hs 766T pancreatic cancer cell line; experiment: In vitro cytotoxicity MTT assay, Hs 766T; format: cell-based, human; settings: 3 days
Procedure: as §1, §2, §3

[3] = system: PANC-1 pancreatic cancer cell line; experiment: In vitro cytotoxicity MTT assay, PANC-1; format: cell-based, human; settings: 3 days
Procedure: as §1, §2, §3

[4] = system: MCF-10A non-transformed human breast epithelial cells; experiment: Cytotoxicity, SRB assay, MCF-10A; format: cell-based; settings: 48 h, SRB binding assay, read-out: IC50 (concentration that inhibited proliferation by 50%)
Procedure: (§4) To assess the biological efficacy of ABC294640 in intact cells, ABC294640 was evaluated for cytotoxicity using human cancer cell lines. These experiments followed methods that have been extensively used. Cell lines tested included MCF-7 human breast adenocarcinoma cells and MCF-10A non-transformed human breast epithelial cells. The indicated cell lines were treated with varying doses of ABC294640 for 48 h. Cell survival was then determined using the SRB binding assay (Skehan et al., 1990, J Natl Cancer Inst 82: 1107), and the concentration of ABC294640 that inhibited proliferation by 50% (the IC50) was calculated. […] ABC294640 is antiproliferative at sub-to-low-micromolar.

[5] = physchem; format: physicochemical; settings: aqueous with cosolvent or surfactant or cyclodextrin
[6] = system: mouse JC mammary adenocarcinoma cell line; experiment: Antitumor activity in syngeneic JC mammary adenocarcinoma model; format: in vivo, Balb/c mice
Procedure: The antitumor activity of ABC294640 was evaluated using a syngeneic tumor model that uses the mouse JC mammary adenocarcinoma cell line growing subcutaneously in immunocompetent Balb/c mice (Lee et al., 2003, Oncol Res 14: 49). These cells express elevated levels of SK activity relative to non-transformed cells, as well as the multidrug resistance phenotype due to P-glycoprotein activity.
Balb/c mice, 6-8 weeks old, were injected subcutaneously with 10^6 JC cells suspended in phosphate-buffered saline. ABC294640 was dissolved in PEG400 and administered to mice every-other day at a dose of 100 mg/kg. Body weights and tumor volumes were monitored daily. […] ABC294640 inhibited tumor growth relative to controls by 69%.

[7] = system: MCF-7 human breast adenocarcinoma cells; experiment: Cytotoxicity, SRB assay, MCF-7; format: cell-based; settings: MCF7, 48 h, read-out: IC50 (concentration that inhibited proliferation by 50%)
Procedure: as §4

[8] = mouse, in vivo
Procedure: […]. […] ABC294640 could also be administered orally to mice at doses up to at least 100 mg/kg without noticeable toxicity.

[9] = system: tumor cell strain F46-WT of the mouse; settings: for formation of resistance to adriamycin: 6 to 8 weeks
Procedure: (§5) The human tumor cell strain K562-WT and the tumor cell strain F46-WT of the mouse (WT=wild type=sensitive to cytostatic treatment=no amplification of the MDR-gene) is treated over several weeks with staged increase in concentrations of adriamycin. […] The formation of resistance is based on the amplification of the MDR gene.
The tumor cell strain F4-6-WT of the mouse (WT=wild type=sensitive to cytostatic treatment=no amplification of the MDR gene) is treated over several weeks with staged increases in concentration of adriamycin. […] The formation of resistance is based on the amplification of the MDR gene. The levels of β-actin MRNA are likewise analyzed as comparison. β-actin is used as an internal control for the RNA quantity.

[10] = system: AH13r sarcoma cells; experiment: BVDU and chemotherapy-induced apoptosis in AH13r sarcoma cells; format: cell-based
Text: AH13r cells were subjected to increasing doses of the cytostatic mitomycin C (MMC). […] This inhibitory effect was maintained even after discontinuation of the cytostatic in the next cycle, in the so-called recovery phase. The cells without MMC and BVDU continued to grow without inhibition. […] The indication that the reduction in cell number is based on apoptosis, was detected by means of Hoechst 33258/propidium iodide (Hopi) double colouration.

[11] = system: human tumor cell strain K562-WT
Procedure: as §5

[12] = system: LPS-induced cytokine production; experiment: LPS-induced cytokine production in C57BL/6 mice; format: in vivo; settings: serum 2 hours after LPS; dosed once 1 hour before LPS; dexamethasone 5 mg/kg i.p., RHB-104 108 mg/kg p.o.
Procedure: This study was performed to evaluate the effects of RHB-104 (as detailed above) dosed orally at 108 mg/kg on lipopolysaccharide (LPS)-induced cytokine production in mice. The LPS-induced cytokine production model in mice is commonly used to test the ability of compounds to suppress production of pro-inflammatory cytokines TNF and IL-6 in vivo.
In this model LPS is injected into mice intraperitoneally (i.p.) or intravenously. Two hours after the LPS injection, concentrations of IL-6 and TNF reach peak levels in serum of the injected mice.
30 female C57BL/6 mice, 11 weeks old, were dosed once with RHB-104, then injected with LPS 1 hour later. 2 hours after LPS injection, mice were bled and serum was isolated. The concentration of cytokines in serum was measured. Dexamethasone administered at 5 mg/kg i.p. was used as positive control for suppression of the immune response. Dexamethasone suppresses production of pro-inflammatory cytokines TNF and IL-6 increases production of anti-inflammatory cytokine IL-10.
Serum concentrations of IL-2, IL-4, IL-6, IL-10, IL-17, IFN-γ and TNF were measured using cytokine bead analysis (CBA) Th1/Th2/Th17 kit (Becton Dickinson). Concentrations of cytokines in serum between groups were compared using 2-tailed Student's t-test.

[13] = system: rat pancreatic tumor model, CA20948; experiment: In vivo test of WX-671 in the pancreatic adenocarcinoma model CA20948; settings: 0.3 mg/kg by intraperitoneal injection; vehicle 30.7%
Procedure: Groups of eighteen rats were inoculated with tumor by intraperitoneal injection of a tumor cell suspension, prepared from a solid tumor harvested from a donor rat.
In this model the intraperitoneally grafted cells migrate to the pancreas to form a pancreatic tumor intimately associated with the pancreas. Within 3 weeks the tumor disseminates typically to the liver to form metastatic lesions which can be counted. Treatments at dose levels of 0.03, 0.3 and 3.0 mg/kg once daily were orally applied daily from day 3 onwards.
The percentage of large liver foci was determined by dividing the number of large lesions by the number of total lesion detected on the livers.

[14] = system: BN472 breast cancer; experiment: In vivo assay of WX-671 in the BN472 rat breast cancer model; set-up: species or system brown Norwegian rats; settings: WX-UK1 1 mg/kg i.p. daily, 30 days
Procedure: The treatments started 72 h after tumor implantation and were repeated daily until the animals were sacrificed after 30 days. The control group (A) received 0.75 ml of the substance-free substance carrier solution consisting of 5% ethanol, 5% D-mannitol and 5% Tween 20 in water orally by gavage.
Growth of the inoculated tumors was determined in the dimensions length and width twice weekly, using a slide gauge. After the animals had been sacrificed, the therapy end points, tumor weight, weights of the axillary and intraperitoneal lymph nodes and also the number of macroscopic lung metastases were determined.

O=C(NCc1ccncc1)C12CC3CC(C1)CC(c1ccc(Cl)cc1)(C3)C2 [ABC640, 3-(4-chlorophenyl)-adamantane-1-carboxylic acid (pyridin-4-ylmethyl)amide]
Toxicity (%) ([1]; 25 μM): 11% | Toxicity (%) ([1]; 50 μM): 92% | Toxicity (%) ([2]; 25 μM): 17% | Toxicity (%) ([2]; 50 μM): 72% | Toxicity (%) ([3]; 25 μM): 0% | Toxicity (%) ([3]; 50 μM): 68%

O=C(NCc1ccncc1)C12CC3CC(C1)CC(c1ccc(Cl)cc1)(C3)C2 [ABC294640, 3-(4-chlorophenyl)-adamantane-1-carboxylic acid (pyridin-4-ylmethyl)amide]
IC50 [4]: 21 µM | solubility [5]: ≥ 15000 µg/mL and 30000 µM to 40000 µM | inhibition of tumor growth relative to controls ([6]; 100 mg/kg in PEG400 every-other day): 69% | decrease of tumor growth versus control animals ([6]; 100 mg/kg in PEG400 every-other day, day 16): > 70% | oral dose with antitumor activity (dose-response studies) ([6]; orally administered): ≥ 35 mg/kg | IC50 [7]: 17 µM | dose with no immediate or delayed toxicity, acute toxicity ([8]; female, Swiss-Webster, ip): at least 50 mg/kg | oral dose without noticeable toxicity ([8]; po): at least 100 mg/kg

O=c1[nH]c(=O)n(C2CC(O)C(CO)O2)cc1/C=C/Br (stereo not drawn) [BVDU, (E)-5-(2-bromovinyl)-2-deoxyuridine]
formation of resistance to adriamycin ([9]; F4-6-WT, 1 μg/ml BVDU with adriamycin): prevented the formation of resistance to adriamycin | formation of resistance to adriamycin ([9]; F46-WT, 0.5 or 1 μg/ml BVDU together with staged increasing adriamycin): prevents the formation of resistance to adriamycin | concentration from which BVDU acts in a toxic manner ([9]; mouse): about 8 μg/ml | toxic effect, given alone [10]: no toxic effect | cell growth in the recovery phase after discontinuation of the cytostatic ([10]; continued BVDU without MMC): greatly inhibited in their growth | formation of resistance to adriamycin ([11]; K562-WT, 0.5 or 1 μg/ml BVDU together with staged increasing adriamycin, 6 to 8 weeks): prevents the formation of resistance to adriamycin | concentration from which BVDU acts in a toxic manner ([11]; human): about 10 μg/ml

C[C@@H]1C[C@H]2[C@@H]3CCC4=CC(=O)C=C[C@]4(C)[C@@]3(F)[C@@H](O)C[C@]2(C)[C@@]1(O)C(=O)CO [Dexamethasone, dexamethasone]
IL-6 (pg/mL) ± SD [12]: 1259 ± 295 pg/mL | IL-10 (pg/mL) ± SD [12]: 106 ± 66 pg/mL | TNF (pg/mL) ± SD [12]: 35 ± 10 pg/mL

CCOC(=O)N1CCN(C(=O)[C@H](Cc2cccc(C(=N)N)c2)NS(=O)(=O)c2c(C(C)C)cc(C(C)C)cc2C(C)C)CC1.Cl [UK-1]
Toxicity (%) ([1]; 5 μM): 33% | Toxicity (%) ([1]; 10 μM): 0% | Toxicity (%) ([1]; 20 μM): 0% | Toxicity (%) ([2]; 5 μM): 35% | Toxicity (%) ([2]; 10 μM): 28% | Toxicity (%) ([2]; 20 μM): 19% | Toxicity (%) ([3]; 5 μM): 0% | Toxicity (%) ([3]; 10 μM): 0% | Toxicity (%) ([3]; 20 μM): 14%

CCOC(=O)N1CCN(C(=O)[C@H](Cc2cccc(C(=N)N)c2)NS(=O)(=O)c2c(C(C)C)cc(C(C)C)cc2C(C)C)CC1 [WX-UK1, Na-(2,4,6-triisopropylphenylsulfonyl)-3-amidino-(L)-phenylalanine-4-ethoxycarbonylpiperazide]
percentage large mets (>2 mm liver lesions of total liver lesions) [13]: 13.4% | reduction of average tumor weights at the end of the treatment compared to the control [14]: approx. 5%

COc1cccc2c1C(=O)c1c(O)c3c(c(O)c1C2=O)C[C@@](O)(C(=O)CO)C[C@@H]3O[C@H]1C[C@H](N)[C@H](O)[C@H](C)O1 [adriamycin]
toxic effect on non-resistant cells ([11]; K562-WT, 20 ng/ml, treatment time 4 days): severely toxic effect

CC[C@H]1OC(=O)[C@H](C)[C@@H](O[C@H]2C[C@@](C)(OC)[C@@H](O)[C@H](C)O2)[C@H](C)[C@@H](O[C@@H]2O[C@H](C)C[C@H](N(C)C)[C@H]2O)[C@](C)(OC)C[C@@H](C)C(=O)[C@H](C)[C@@H](O)[C@]1(C)O [clarithromycin, Clarithromycin]
Toxicity (%) ([1]; 100 μM): 0% | Toxicity (%) ([2]; 100 μM): 29% | Toxicity (%) ([3]; 100 μM): 7%

CC(C)/N=c1\cc2n(-c3ccc(Cl)cc3)c3ccccc3nc-2cc1Nc1ccc(Cl)cc1 [clofazimine, Clofazimine]
Toxicity (%) ([1]; 5 μM): 4% | Toxicity (%) ([2]; 5 μM): 62% | Toxicity (%) ([3]; 5 μM): 41%

CO[C@H]1/C=C/O[C@@]2(C)Oc3c(C)c(O)c4c(c3C2=O)C2=NC3(CCN(CC(C)C)CC3)NC2=C(NC(=O)/C(C)=C\C=C\[C@H](C)[C@H](O)[C@@H](C)[C@@H](O)[C@@H](C)[C@H](OC(C)=O)[C@@H]1C)C4=O [rifabutin, Rifabutin]
Toxicity (%) ([1]; 35 μM): 8% | Toxicity (%) ([2]; 70 μM): 20% | Toxicity (%) ([3]; 70 μM): 0%
